Experimental data: patent US11365204B2, “Substituted dihydrothienopyrimidines and their use as phosphodiesterase inhibitors” (UNION therapeutics A/S, priority 2017, dated 2022)

Columns and labels:
[1] = tested on: Human peripheral blood mononuclear cells (PBMC); assay: TNF-α release from LPS-stimulated PBMC; assay type: cell-based; conditions: Lipopolysaccharide 1 microg/ml, 18 hours, AlphaLISA, read-out: TNF-α IC50 range
Procedure: Human peripheral blood mononuclear cells (PBMC) were isolated from fresh buffy coats by density centrifugation using lymphoprep tubes (Medinor). Frozen PBMC's were washed in serum free assay buffer (RPMI1640 with 25 mM HEPES, 1% pen/strep, […] L glutamine, 0.5% human serum albumin) and living cells counted. Lipopolysaccharide (1 microg/ml; SIGMA) was added to the cells which were then transferred to 384 well tissue culture plates ([…]) containing titrated test compounds. The cells were incubated for 18 hours at 37° C. in serum free assay buffer and the level of TNFalpha in the supernatant was quantitated by AlphaLISA (PerkinElmer) by measuring fluorescence intensity at 615 nm.
Results were expressed as IC50 values calculated from inhibition curves using as controls the secretion in LPS stimulated wells and the secretion in cells incubated with 10 microM of a PDE4 inhibitor reference compound.

[2] = biological target: human PDE4D catalytic domain (UniProt no. Q08499 [S380-L740]) (Homo sapiens (Human), UniProt Q08499); assay: PDE4 assay (TR-FRET, cAMP hydrolysis); assay type: biochemical; conditions: read-out: PDE4 IC50 range
Sequence of human PDE4D catalytic domain (Q08499 380-740): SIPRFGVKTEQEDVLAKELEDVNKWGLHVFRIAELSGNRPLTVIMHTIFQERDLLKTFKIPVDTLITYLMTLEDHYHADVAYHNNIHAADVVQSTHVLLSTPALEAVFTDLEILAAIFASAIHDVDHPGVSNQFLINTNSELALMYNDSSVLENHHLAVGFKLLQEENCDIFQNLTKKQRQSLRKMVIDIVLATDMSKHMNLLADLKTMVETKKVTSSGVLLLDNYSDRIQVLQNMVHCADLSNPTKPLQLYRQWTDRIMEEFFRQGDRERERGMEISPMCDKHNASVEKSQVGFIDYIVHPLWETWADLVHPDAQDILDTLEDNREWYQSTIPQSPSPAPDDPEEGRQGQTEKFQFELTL
Procedure: The human PDE4D catalytic domain (UniProt no. Q08499 [S380-L740]) was incubated with a mixture of non-labelled cAMP (cyclic adenosine monophosphate) and fluorescein amidite (FAM) conjugated cAMP and titrated test or reference compound.
Following brief incubation the enzymatic reaction was stopped by addition of binding buffer containing nanoparticles with immobilized trivalent metal ions capable of binding 1) AMP phospho groups and 2) terbium (Tb) donor fluorophores. Subsequent excitation of the Tb donor triggered time-resolved FRET to adjacent FAM acceptor molecules resulting in light emission. In the presence of a PDE4 inhibitor, AMP generation was reduced resulting in a lower fluorescence signal. The cAMP phosphodiester is not bound by the detection system.
Results were expressed as IC50 values (nM) calculated from inhibition curves where the TR-FRET signal was normalized to Tb fluorescence intensity and the negative (DMSO vehicle) and positive (10 microM a PDE4 inhibitor reference compound) controls.

SMILES | IC50 [1] | IC50 [2]
O=C(OC1CN(c2nc3c(c(NC4CC5(COC5)C4)n2)[S+]([O-])CC3)C1)c1cnsc1 (racemic) [Example 65, [1-[4-(6-oxaspiro[3.3]-heptan-2-ylamino)-5-oxido-6,7-dihydrothieno-[3,2-d]pyrimidin-5-ium-2-yl]azetidin-3-yl] isothia-zole-4-carboxylate] | < 100 nM | < 100 nM
O=C(OC1CN(c2nc3c(c(NC4CC5(COC5)C4)n2)[S@@+]([O-])CC3)C1)c1cscn1 (single isomer, unassigned) [Example 70] | < 100 nM | < 100 nM
O=C(OC1CN(c2nc3c(c(NC4CC5(COC5)C4)n2)[S@+]([O-])CC3)C1)c1cscn1 (single isomer, unassigned) [Example 71] | > 500 nM | 100 to 500 nM
CN(c1nc(N2CC(OC(=O)c3cnsc3)C2)nc2c1[S+]([O-])CC2)C1CCOCC1 (stereo in doubt) [Example 4, [1-[(5R)-4-[Methyl(tetrahydropyran-4-yl)amino]-5-oxido-6,7-dihydrothieno[3,2-d]pyrimidin-5-ium-2-yl]azetidin-3-yl] isothiazole-4-carboxylate] | < 100 nM | < 100 nM
CN(c1nc(N2CC(OC(=O)c3cscn3)C2)nc2c1[S+]([O-])CC2)C1CCOCC1 (stereo in doubt) [Example 6, [1-[(5R)-4-[Methyl(tetrahydropyran-4-yl)amino]-5-oxido-6,7-dihydrothieno[3,2-d]pyrimidin-5-ium-2-yl]azetidin-3-yl] thiazole-4-carboxylate] | < 100 nM | < 100 nM
O=C(OC1CN(c2nc3c(c(NC4CC5(COC5)C4)n2)[S+]([O-])CC3)C1)c1cnsc1 (stereo in doubt) [Example 68, [1-[(5R)-4-(6-oxaspiro-[3.3]heptan-2-ylamino)-5-oxido-6,7-dihydrothieno-[3,2-d]pyrimidin-5-ium-2-yl]azetidin-3-yl] isothia-zole-4-carboxylate] | < 100 nM | < 100 nM
O=C(OC1CN(c2nc3c(c(NC4CC5(COC5)C4)n2)[S+]([O-])CC3)C1)c1cnsc1 (stereo in doubt) [Example 69, [1-[(5S)-4-(6-oxaspiro-[3.3]heptan-2-ylamino)-5-oxido-6,7-dihydrothieno-[3,2-d]pyrimidin-5-ium-2-yl]azetidin-3-yl] isothia-zole-4-carboxylate] | > 500 nM | 100 to 500 nM
O=C(OC1CN(c2nc3c(c(NC4CCOCC4)n2)[S@@+]([O-])CC3)C1)c1cnsc1 [Example 1, [1-[(5R)-5-Oxido-4-(tetrahydropyran-4-ylamino)-6,7-dihydrothieno[3,2-d]pyrimidin-5-ium-2-yl]azetidin-3-yl] isothiazole-4-carboxylate] | < 100 nM | < 100 nM
O=C(OC1CN(c2nc3c(c(NC4CCOCC4)n2)[S@@+]([O-])CC3)C1)c1cscn1 [Example 2, [1-[(5R)-5-Oxido-4-(tetrahydropyran-4-ylamino)-6,7-dihydrothieno[3,2-d]pyrimidin-5-ium-2-yl]azetidin-3-yl] thiazole-4-carboxylate] | < 100 nM | < 100 nM
CN(c1nc(N2CC(OC(=O)c3cnsc3)C2)nc2c1[S+]([O-])CC2)C1CCOCC1 (stereo not shown) [Example 3, [1-[4-[Methyl(tetrahydropyran-4-yl)amino]-5-oxido-6,7-dihydrothieno[3,2-d]pyrimidin-5-ium-2-yl]azetidin-3-yl] isothiazole-4-carboxylate] | < 100 nM | < 100 nM
CN(c1nc(N2CC(OC(=O)c3cscn3)C2)nc2c1[S+]([O-])CC2)C1CCOCC1 (stereo not shown) [Example 5, [1-[4-[Methyl(tetrahydropyran-4-yl)amino]-5-oxido-6,7-dihydrothieno[3,2-d]pyrimidin-5-ium-2-yl]azetidin-3-yl] thiazole-4-carboxylate] | < 100 nM | < 100 nM
